In ChEMBL document CHEMBL1157539, “Thousands of chemical starting points for antimalarial lead identification” (Nature, 2010):

Tested on: Plasmodium falciparum
Assay: GSK_TCMDC: Inhibition of Plasmodium falciparum 3D7 in whole erythrocytes, using parasite LDH activity as an index of growth.
Format: functional, organism-based
Conditions: Plasmodium falciparum, 3D7

Compound | XC50 [nM]
O=C(/C=C/c1ccc(Cl)cc1)NCCCCCN1CCC(c2c[nH]c3ccccc23)CC1 | 838
O=C(/C=C/c1ccc(Cl)c(Cl)c1)NCCCCCN1CCC(C(=O)Nc2ccc3c(c2)OCO3)CC1 | 839
CC(C)c1sc(N2CCCCC2)nc1C(=O)Nc1ccc(F)cc1C(F)(F)F | 239
COc1ccc(CCNCCCCCCNCCc2ccccc2Cl)cc1OC | 657
O=C(NCCCCN1CCC(c2ccc3c(c2OCc2ccccn2)CCCC3)CC1)c1ccc(NC(=O)c2ccc(Cl)cc2)cc1 | 803
CCCCSc1nc2c(c(=O)n1Cc1ccco1)C1(CCCCC1)Cc1ccccc1-2 | 958
Cc1cc(NCCC(=O)Nc2ccccc2)nc(NCCc2ccccc2)n1 | 852
CNC(=O)c1cc(NCCCNCc2ccc(Cl)c(C(F)(F)F)c2)nc2ccccc12 | 931
Cc1cc(N[C@@H](Cc2ccccc2)C(=O)NC2CCCC2)nc(NCC2CCCCC2)n1 | 1170
O=S1(=O)NC2(CCN(CCc3ccc(Cl)cc3)CC2)Nc2cc(F)cc(F)c21 | 1460
CS(=O)(=O)c1ccc(-c2cc(C(F)(F)F)nc(N[C@@H]3CCCC[C@H]3OCc3ccccc3)n2)cc1 | 60.4
O=C(/C=C/c1ccc([N+](=O)[O-])cc1)N1CCC(NS(=O)(=O)c2ccc(F)cc2)CC1 | 824
CS(=O)(=O)c1ccc(CCNCc2ccc(-c3ccc(CN(C(=O)C4CC(=O)c5ccccc54)C4CCN(Cc5ccccc5)CC4)cc3)nc2)cc1 (configuration not stated) | 592
O=C(Nc1ccc(-c2nc3ccccc3[nH]2)cc1)c1cccc(S(=O)(=O)N2CCOCC2)c1 | 902
CC1CCc2sc(-c3nnc(SC(C)C(=O)N4CCCC4)o3)cc2C1 (configuration not stated) | 878
COc1ccc2nc3cc(Cl)ccc3c(Nc3ccc(Oc4ccc(Nc5c6ccc(Cl)cc6nc6ccc(OC)cc56)cc4)cc3)c2c1 | 859
Cc1cc2nc(-c3ccc(C(=O)NCc4cccc(C(F)(F)F)c4)cc3)[nH]c2cc1C | 807
COc1ccc(CNCc2ccsc2)cc1-c1ccc(S(=O)(=O)NCCN2CCCC2)c(C)c1 | 898
CN(C)CCOc1ccc(-c2cc(-c3ccc(Cl)c(O)c3)c(-c3ccnc(N)n3)o2)cc1 | 1320
COc1ccc(NC(=O)NC2CCN(CCCOc3ccnc4cc(Cl)ccc34)C2)cc1OC (configuration not stated) | 792
CC(C)NCc1cccc(-c2ccc(-c3nc4cc(C(F)(F)F)ccc4[nH]3)cc2)c1 | 193
O=C(Nc1ccc(-c2nc3ccc(NC(=O)c4ccc(Br)cc4)cc3[nH]2)cc1)c1ccc(Br)cc1 | 786
Clc1ccc2c(NN=Cc3cccs3)ccnc2c1 | 922
CS(=O)(=O)NCCCNCc1cccc(-c2cccc(-c3nc4cc(C(F)(F)F)ccc4[nH]3)c2)c1 | 467
Cc1ccc(C(=O)Nc2ccc(F)c(F)c2F)cc1S(=O)(=O)N1CCCCC1 | 763

Compound | XC50 [nM]
CC(C)S(=O)(=O)N1CCN(Cc2ccc3c(c2)nc(NC(=O)c2ccsc2)n3C[C@H](O)c2ccccc2)CC1 | 271
NS(=O)(=O)NCCCN1CCN(c2ccccc2)CC1 | 977
CCn1c(-c2nonc2N)nc2c(-c3cccc(NC(=O)Nc4cccc(Cl)c4)c3)ncc(OCCCN)c21 | 941
CCN(CC)CCCNc1nccc(N2CCc3ncnc(Nc4ccc(OCc5cccc(F)c5)c(Cl)c4)c3C2)n1 | 111
COc1ccc(CCNCCCCCNCCCc2ccc(Cl)cc2)cc1OC | 808
CC[C@H]1CN2CC[C@@H]1C[C@H]2[C@H](O)c1ccnc2ccc(OC)cc12 | 225
COc1ccc2c(=NN=CC=Cc3ccccc3)cc(C)[nH]c2c1 | 842
Cc1cc(C(=O)Nc2ccc3c(c2)CCN3C2CCN(Cc3ccc(O)cc3)C2)no1 (configuration not stated) | 774
Cc1cc(N[C@@H](CC(C)C)C(=O)NCc2cccs2)nc(NCCc2ccc(F)cc2)n1 | 800
CCc1ccc(NC(=O)c2cccc(CN3CCCN(Cc4cccc(O)c4)CC3)c2)cc1 | 894
Cc1nnsc1C(=O)Nc1cccc(-c2ccc(-c3nc4cc(F)ccc4[nH]3)s2)c1 | 889
COc1ccc2c(c1)CC(NCc1ccc(-c3ccc4nc[nH]c4c3)cc1)C2 (configuration not stated) | 880
COc1ccc2nccc(N3CCC(O)(CCNCc4ccc5c(n4)NC(=O)CO5)CC3)c2n1 | 819
COc1cc2c(OC)cccc2cc1CNCCCCCCNCc1cc2cccc(OC)c2cc1OC | 823
COC(=O)CCn1c(C2CCN(CC3CCC(NC(=O)/C=C/c4ccc(Cl)c(Cl)c4)CC3)CC2)nc2ccccc21 (configuration not stated) | 951
CN1CCN(c2ccnc3ccc(NC(=O)Nc4cccc5c(C#N)cccc45)cc23)CC1 | 1050
O=C(c1ccccc1)N1CCC(CN2CCOC(c3ccccc3)(c3ccccc3)C2)CC1 | 497
O=C(C=Cc1ccc(Cl)c(Cl)c1)NCCCCCN1CCCC(CCCNC(=O)/C=C/c2ccccc2)C1 (configuration not stated) | 593
Oc1ccc(Cc2cc(Oc3c(I)cc(CCc4ncc[nH]4)cc3I)ccc2O)cc1 | 712
O=C(Nc1ccc2c(c1)OCO2)NC1CCN(c2ccnc(Nc3ccc(F)cc3)n2)C1 (configuration not stated) | 743
Cc1ccc(C(=O)Nc2ccc(Cl)c(N3CCN(CCc4ccccc4)CC3)c2)cc1 | 926
N#Cc1ccc(CN2CCC(Oc3ccc(NC(=O)c4ccco4)cc3Cl)C2)cc1 (configuration not stated) | 331
COc1ccc2nccc([C@@H](O)CN3CCC(NCc4cc5ccccn5n4)CC3)c2c1 | 1570
O=C(NC1CCN(Cc2ccccc2O)C1)c1ccc(Cl)c(Cl)c1 (configuration not stated) | 894
Cc1ccc(NC(=O)c2ccc(NCCCN3CC(C)CC(C)C3)c([N+](=O)[O-])c2)cc1F (configuration not stated) | 711

Compound | XC50 [nM]
COc1ccc(CCNc2nc(N)c3cc(OC)c(OC)cc3n2)cc1 | 1120
O=C(NCCCCN1CC=C(c2ccc3c(c2OCC2CC2)CCCC3)CC1)c1ccc(-c2ccc(C(F)(F)F)cc2)cc1 | 540
Fc1ccc(C2N=C(SCCSC3=NC(c4ccc(F)cc4)C(c4ccc(F)cc4)N3)NC2c2ccc(F)cc2)cc1 (configuration not stated) | 912
CC(=O)Nc1ccc(CN2CCc3ccc(NS(=O)(=O)c4cccc(OCc5ccc(Cl)cc5)c4)cc3CC2)s1 | 906
CCCCCCN1CCC(NCc2cccc(C#N)c2)CC1 | 778
COc1ccc2nccc([C@@H](O)CN3CCC(NCc4ccc5c(c4)NC(=O)C(C)(C)O5)CC3)c2c1 | 402
CCCCCN1CCCC1CNS(=O)(=O)c1ccc(C(=O)Nc2cccc(C(F)(F)F)c2)cc1 (configuration not stated) | 1060
CN(C)c1ccc(C=Cc2ccc3ccccc3n2)c(Cl)c1 | 436
Cc1cccc2nc(-c3cccc(-c4ccc(NC(=O)CC5NC(=O)c6ccccc65)cc4)c3)[nH]c12 (configuration not stated) | 289
CNCC(C)(C)c1nc(-c2ccc(Cl)c(O)c2)c(-c2ccncc2)[nH]1 | 736
CC(C)n1ncc2c(C(=O)Nc3ccc(C#N)c(Cl)c3)cc(C3CC3)nc21 | 962
CC(C)c1ccc(O)cc1Nc1ccnc2ccc(C(F)(F)F)cc12 | 675
CCCn1c(Sc2ccc(C#N)c([N+](=O)[O-])c2)nnc1-c1ccc(OC)cc1 | 865
C=CCOC(=O)N1CCC(CNCc2ccc(-c3cccc(-c4nc5cc(F)ccc5[nH]4)c3)cc2)C1 (configuration not stated) | 140
COc1cccc(C(=O)OC2=C3CCC(=O)C3(C)CCC2=O)c1 (configuration not stated) | 77.9
CN(C)c1ccc(NC(=O)Nc2ccnc3ccc(Br)cc23)cc1 | 872
CCOC(=O)c1ccc(-c2cnoc2-c2cc(CC)c(OC)cc2O)o1 | 275
CCc1cn2c3c(cc(C(=O)N[C@@H](Cc4cccc(Cl)c4)[C@H](O)CNC4CC4)cc13)N(C)S(=O)(=O)CC2 | 145
COc1ccc2ccc(F)c(CC(=O)N3CCOC(CNCc4cccc(-c5ccc(F)cc5)n4)C3)c2n1 (configuration not stated) | 1010
COC(=O)c1ccc2nc(-c3ccc(C(=O)NCc4ccc(Cl)c(Cl)c4)cc3)[nH]c2c1 | 852
O=c1cc(NCCCNCc2cccc3c2OC(F)(F)O3)[nH]c2ccccc12 | 947
Cc1c(Cl)ccc2c(C(=O)Nc3ccncc3)cc(-c3cccnc3)nc12 | 777
Cc1ccc(CCC(C)NCC(O)c2cccc(C(F)(F)F)c2)cc1 (configuration not stated) | 561
O=C(Nc1ccc2c(c1)CCN(C1CCC1)CC2)c1cn(-c2ccccc2)nc1-c1ccccc1 | 808
Cc1nc(-c2ccc(C(F)(F)F)cn2)sc1C(=O)N1CCc2cc3nccc(N4CCN5CCC[C@H]5C4)c3cc21 | 784

Compound | XC50 [nM]
Cc1cc(=NN=Cc2ccc(F)cc2)c2cc(F)ccc2[nH]1 | 644
CCN1CCCC(Nc2ccnc3cc4ccccc4cc23)C1 (configuration not stated) | 104
CCN(CC)Cc1cccc(-c2cc3c(-c4ccc(C(=O)O)c(C(C)C)c4)ccnc3[nH]2)c1OC | 323
CCN(CCNC(=O)Cn1c(C)cc2cc([N+](=O)[O-])ccc21)c1cccc(C)c1 | 1010
Fc1ccc(Nc2nnc(CNC3CCN(Cc4ccc(Cl)c(Cl)c4)CC3)[nH]2)cc1 | 1380
CC(C)(C)c1nn(-c2ccccc2)c2[nH]c(=O)c(CNC3CCCC3)cc12 | 850
CC(C)(C)c1ccc(NC(=O)c2cccc(CN3CCCN(Cc4cccc(O)c4)CC3)c2)cc1 | 552
O=S1(=O)C=C(c2ccccc2)CC1 | 205
O=c1cc(NCCCN(Cc2ccccc2)Cc2ccccc2)[nH]c2ccccc12 | 577
O=C(NCc1ccccc1[S+]([O-])c1ccccc1CO)C(F)(F)F (configuration not stated) | 184
Cc1cccc2nc(-c3cccc(-c4cccc(NC(=O)CCc5c[nH]cn5)c4)c3)[nH]c12 | 553
COC(=O)c1ccccc1COc1ccc(CC2(NC(=O)[C@H](Nc3ccc(C#N)c4ccccc34)C(C)(C)C)CCCC2)cc1 | 856
CCc1cn(CCS(C)(=O)=O)c2ccc(C(=O)N[C@@H](Cc3ccccc3)[C@H](O)CNC(C)(C)CCCC(C)C)cc12 | 877
CN(C)CCCOc1ccc(CCNCc2cccc(Oc3ccc(Cl)cc3)c2)cc1 | 887
CC(C)CNCc1ccc(-c2cccc(CNc3ccc4ncccc4c3)c2)cc1 | 913
COc1cccc(CN2CCN(C(c3ccccc3)c3ccccc3)CC2)c1O | 781
Cn1cncc1C(=O)Nc1cccc(-c2ccc(-c3nc4cc(F)ccc4[nH]3)cc2)c1 | 735
CSc1cccc(NC(=O)c2cc3ccccc3oc2=O)c1 | 833
COc1ccc2nccc(NC(=O)C3CCC(NCc4ccc5c(c4)NC(=O)CS5)CC3)c2c1 (configuration not stated) | 586
CN(CCCc1c[nH]c2ccccc12)CC1CCN(C(=O)/C=C/c2ccc(Cl)c(Cl)c2)CC1 | 747
COc1ccc(CCNc2nc(SCc3ccccc3Cl)nc3ccccc23)cc1OC | 943
O=C(Nc1ccccc1N1CCOCC1)c1ncoc1-c1ccccc1C(F)(F)F | 1060
